According to US20190282501A1, “HYDROALCOHOLIC FOAM FORMULATIONS OF NAFTIFINE” (priority 2016, published 2019):
Counter-ions that a name gives are not always drawn. Like-named read-outs stand apart in the source and are kept apart here.

Tests used:
[1] = after 3m and after 6m at 25° C., 30° C. and 40° C.; stated below Table 6B (Formulation D)
Protocol: The amount of active agent present is analyzed in foam expelled from various pressurized canisters containing foam formulations using HPLC. Analysis is carried out at zero time and at appropriate time intervals thereafter. The canisters are stored in controlled temperature incubators at one or more of 5° C., at 25° C., at, 40° C. and at 50° C. At appropriate time intervals canisters are removed and the amount of active agent in the foam sample is measured.

[2] = Protocol: To generate a foam composition that is capable of maintaining the high solubility of naftifine HCl without needing to add in surfactants, the solubility of the API with various excipients was tested. Naftifine hydrochloride was combined with different solvents to identify which solvents are able to solubilize the API. The objective of this study was to determine which solvents can be useful in the development of formulations where the API is soluble. The objective of this study was not to determine the maximal solubility of the API in the tested solvents.
To prepare the mixtures, the API was added at a 1% w/w concentration to each solvent at room temperature under mixing. Solubility at room temperature was then assessed after 24 hours by determining the presence of API crystals using microscopic observation at ×200 magnification under polarized light. The mixture was then heated to about 80° C. for 10 minutes and mixed. Solubility at 80° C. was assessed by visual observation. The mixture was then cooled to room temperature and solubility was assessed after 24 hours by determining the presence of API crystals using microscopic evaluation at ×200 magnification under polarized light.
The first column in Table 5 relates to the solubility at room temperature before heating to 80° C. The second column relates to the solubility at 80° C. as observed visually. The third column relates to the solubility after the mixture has been heated to 80° C. and cooled down to room temperature.

[3] = in Capric caprylic triglycerides

Stability of naftifine [1]: stable
Dissolution in hydrophobic solvents ([2]; hydrophobic solvents, even under heating): did not dissolve
Max. Solubility at RT after heating at 80° C. [2, 3]: <1%
Maximum Solubility at 80° C. [2, 3]: <1%
Maximum Solubility at RT [2, 3]: <1%
Max. Solubility at RT after heating at 80° C. ([2]; in Castor oil): <1%
Maximum Solubility at 80° C. ([2]; in Castor oil): <1%
Maximum Solubility at RT ([2]; in Castor oil): <1%
Max. Solubility at RT after heating at 80° C. ([2]; in Cyclomethicone): <1%
Maximum Solubility at 80° C. ([2]; in Cyclomethicone): <1%
Maximum Solubility at RT ([2]; in Cyclomethicone): <1%
Max. Solubility at RT after heating at 80° C. ([2]; in Diethyl sebacate): <1%
Maximum Solubility at 80° C. ([2]; in Diethyl sebacate): <1%
Maximum Solubility at RT ([2]; in Diethyl sebacate): <1%
Max. Solubility at RT after heating at 80° C. ([2]; in Diisopropyl adipate): <1%
Maximum Solubility at 80° C. ([2]; in Diisopropyl adipate): <1%
Maximum Solubility at RT ([2]; in Diisopropyl adipate): <1%
Max. Solubility at RT after heating at 80° C. ([2]; in Dimethyl isosorbide): <1%
Maximum Solubility at 80° C. ([2]; in Dimethyl isosorbide): <1%
Maximum Solubility at RT ([2]; in Dimethyl isosorbide): <1%
Max. Solubility at RT after heating at 80° C. ([2]; in Dimethyl sulfoxide): >8%
Maximum Solubility at 80° C. ([2]; in Dimethyl sulfoxide): >8%
Maximum Solubility at RT ([2]; in Dimethyl sulfoxide): ~2%
Maximum Solubility at 80° C. ([2]; in Ethanol 95%): >8%
Maximum Solubility at RT ([2]; in Ethanol 95%): ~4%
Max. Solubility at RT after heating at 80° C. ([2]; in Ethanol 95%, hydrochloride): >8%
Max. Solubility at RT after heating at 80° C. ([2]; in Ethanol 95%, listed as naftifine HCl, hydrochloride): higher than 8%
Max. Solubility at RT after heating at 80° C. ([2]; in Glycerin): ~1%
Maximum Solubility at 80° C. ([2]; in Glycerin): ~1%
Maximum Solubility at RT ([2]; in Glycerin): <1%
Max. Solubility at RT after heating at 80° C. ([2]; in Glycofurol): ~1%
Maximum Solubility at 80° C. ([2]; in Glycofurol): ~1%
Maximum Solubility at RT ([2]; in Glycofurol): <1%
Max. Solubility at RT after heating at 80° C. ([2]; in Hexylene glycol): ~1%
Maximum Solubility at 80° C. ([2]; in Hexylene glycol): ~1%
Maximum Solubility at RT ([2]; in Hexylene glycol): <1%
Max. Solubility at RT after heating at 80° C. ([2]; in Isopropyl alcohol): ~2%
Maximum Solubility at 80° C. ([2]; in Isopropyl alcohol): ~2%
Maximum Solubility at RT ([2]; in Isopropyl alcohol): <1%
Max. Solubility at RT after heating at 80° C. ([2]; in Isopropyl myristate): <1%
Maximum Solubility at 80° C. ([2]; in Isopropyl myristate): <1%
Maximum Solubility at RT ([2]; in Isopropyl myristate): <1%
Max. Solubility at RT after heating at 80° C. ([2]; in Isostearic acid): <1%
Maximum Solubility at 80° C. ([2]; in Isostearic acid): <1%
Maximum Solubility at RT ([2]; in Isostearic acid): <1%
Max. Solubility at RT after heating at 80° C. ([2]; in Mineral oil light): <1%
Maximum Solubility at 80° C. ([2]; in Mineral oil light): <1%
Maximum Solubility at RT ([2]; in Mineral oil light): <1%
Max. Solubility at RT after heating at 80° C. ([2]; in Octyldodecanol): <1%
Maximum Solubility at 80° C. ([2]; in Octyldodecanol): <1%
Maximum Solubility at RT ([2]; in Octyldodecanol): <1%
Max. Solubility at RT after heating at 80° C. ([2]; in Oleic acid): <1%
Maximum Solubility at 80° C. ([2]; in Oleic acid): <1%
Maximum Solubility at RT ([2]; in Oleic acid): <1%
Max. Solubility at RT after heating at 80° C. ([2]; in Oleyl alcohol): <1%
Maximum Solubility at 80° C. ([2]; in Oleyl alcohol): <1%
Maximum Solubility at RT ([2]; in Oleyl alcohol): <1%
Max. Solubility at RT after heating at 80° C. ([2]; in Olive oil): <1%
Maximum Solubility at 80° C. ([2]; in Olive oil): <1%
Maximum Solubility at RT ([2]; in Olive oil): <1%
Max. Solubility at RT after heating at 80° C. ([2]; in PPG-15 stearyl ether): <1%
Maximum Solubility at 80° C. ([2]; in PPG-15 stearyl ether): <1%
Maximum Solubility at RT ([2]; in PPG-15 stearyl ether): <1%
Max. Solubility at RT after heating at 80° C. ([2]; in Polyethylene glycol 200): ~3%
Maximum Solubility at 80° C. ([2]; in Polyethylene glycol 200): ~6%
Maximum Solubility at RT ([2]; in Polyethylene glycol 200): <1%
Max. Solubility at RT after heating at 80° C. ([2]; in Polyethylene glycol 400): <1%
Maximum Solubility at 80° C. ([2]; in Polyethylene glycol 400): <1%
Maximum Solubility at RT ([2]; in Polyethylene glycol 400): <1%
Max. Solubility at RT after heating at 80° C. ([2]; in Propylene glycol): >8%
Maximum Solubility at 80° C. ([2]; in Propylene glycol): >8%
Maximum Solubility at RT ([2]; in Propylene glycol): <1%
Max. Solubility at RT after heating at 80° C. ([2]; in Sodium pyroglutamic acid): <1%
Maximum Solubility at 80° C. ([2]; in Sodium pyroglutamic acid): <1%
Maximum Solubility at RT ([2]; in Sodium pyroglutamic acid): <1%
Max. Solubility at RT after heating at 80° C. ([2]; in Soybean oil): <1%
Maximum Solubility at 80° C. ([2]; in Soybean oil): <1%
Maximum Solubility at RT ([2]; in Soybean oil): <1%
Max. Solubility at RT after heating at 80° C. ([2]; in Transcutol): ~2%
Maximum Solubility at 80° C. ([2]; in Transcutol): ~2%
Maximum Solubility at RT ([2]; in Transcutol): <1%
Max. Solubility at RT after heating at 80° C. ([2]; in Water): ~1%
Maximum Solubility at 80° C. ([2]; in Water): ~1%
Maximum Solubility at RT ([2]; in Water): <1%
Dissolution in hydrophilic solvents ([2]; propylene glycol (after heating), ethanol, dimethyl sulfoxide and polyethylene glycol 200 (after heating)): dissolved well
SMILES: CN(C/C=C/c1ccccc1)Cc1cccc2ccccc12 [naftifine hydrochloride, (E)-N-methyl-N-(1-naphthyl-methyl)-3-phenyl-2-propen-l-amine hydrochloride]
